Reference: patent publication US9856262B2, “Analogues of 4H-pyrazolo[1,5-a] benzimidazole compound as PARP inhibitors” (HUBEI BIO-PHARMACEUTICAL INDUSTRIAL TECHNOLOGICAL INSTITUTE …, priority 2014, dated 2018)
Where two headings read alike, the source gives them in different places.

Key:
[1] = target: T1, PARP-1 (Homo sapiens, UniProt P09874); assay: PARP enzymatic assay (HT Universal Colorimetric PARP1 Assay Kit); format: biochemical; settings: read-out: PARP-1 enzymatic inhibition IC50
T1 construct: purchased
How it was run: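 Inhibition of PARP1 was measured with the HT Universal Colorimetric PARP1 Assay Kit. A 96-well plate was coated with histone proteins overnight at 4° C, washed with PBST, and blocked for 30 min at room temperature. Test compound and 20 μl of PARP1 (1 nM) were then added and incubated. Streptavidin-HRP (1:50) and chemiluminescent HRP substrate were added, and the signal was read on an Envision microplate reader.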

[2] = system: HCC1937 cells; assay: Cellular PARylation assay; format: cell-based; settings: Homo sapiens
How it was run: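 HCC1937 cells pretreated 30 min with compound, then stimulated with 1 mM H2O2 for 10 min. Fixed cells immunostained with anti-PAR 10H and FITC secondary, with DAPI counterstain; fluorescence read on a plate reader.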

[3] = HCC1937 cells, compound 30 min then 1 mM H2O2 10 min, read-out: cellular PARylation EC50

T1 sequence (P09874 whole entry): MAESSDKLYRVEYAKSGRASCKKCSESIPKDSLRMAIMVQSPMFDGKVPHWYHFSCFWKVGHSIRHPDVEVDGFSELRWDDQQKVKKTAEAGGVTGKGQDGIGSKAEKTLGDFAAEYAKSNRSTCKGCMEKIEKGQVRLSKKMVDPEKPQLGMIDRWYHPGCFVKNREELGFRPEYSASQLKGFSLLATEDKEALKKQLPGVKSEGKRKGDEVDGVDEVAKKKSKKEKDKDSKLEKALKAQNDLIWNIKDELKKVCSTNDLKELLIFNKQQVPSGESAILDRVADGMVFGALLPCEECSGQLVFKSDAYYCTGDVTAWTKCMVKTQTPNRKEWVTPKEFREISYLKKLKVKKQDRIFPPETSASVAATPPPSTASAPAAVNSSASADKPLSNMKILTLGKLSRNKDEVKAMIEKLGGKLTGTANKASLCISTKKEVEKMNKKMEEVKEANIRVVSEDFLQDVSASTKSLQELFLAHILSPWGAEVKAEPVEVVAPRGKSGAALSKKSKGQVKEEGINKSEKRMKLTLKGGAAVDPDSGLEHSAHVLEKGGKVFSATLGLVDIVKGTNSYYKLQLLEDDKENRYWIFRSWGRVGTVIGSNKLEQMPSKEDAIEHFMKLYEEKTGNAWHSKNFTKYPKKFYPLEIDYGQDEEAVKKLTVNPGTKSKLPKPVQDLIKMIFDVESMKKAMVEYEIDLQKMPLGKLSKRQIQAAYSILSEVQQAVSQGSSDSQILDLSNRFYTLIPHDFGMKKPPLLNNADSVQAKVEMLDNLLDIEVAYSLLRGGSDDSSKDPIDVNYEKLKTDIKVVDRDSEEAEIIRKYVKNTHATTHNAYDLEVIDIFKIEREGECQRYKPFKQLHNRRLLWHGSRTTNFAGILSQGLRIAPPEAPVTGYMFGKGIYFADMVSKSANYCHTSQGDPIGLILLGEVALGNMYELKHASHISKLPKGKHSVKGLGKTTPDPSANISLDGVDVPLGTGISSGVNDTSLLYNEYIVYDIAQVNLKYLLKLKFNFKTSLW

SMILES	IC50 [1]	EC50 [2, 3]	EC50 ([2]; HCC1937, read-out: cellular PARylation EC50)
CC1(c2cnn3c2[nH]c2cc(F)cc(C(N)=O)c23)CCN(CCC(F)(F)F)C1 (stereo not drawn) [Example 99, 6-fluoro-3-(3-methyl-1-(3,3,3-trifluoropropyl)pyrrolidin-3-yl)-4H-benzo[4,5]imidazo[1,2-b]pyrazole-8-carboxamide]	1 to 100 nM	1 to 100 nM	–
CC1(c2cnn3c2[nH]c2cc(F)cc(C(N)=O)c23)CCN(CC2(N)CC2)C1 (stereo not drawn) [Example 100, 3-(1-((1-aminocyclopropyl)methyl)-3-methylpyrrolidin-3-yl)-6-fluoro-4H-benzo[4,5]imidazo[1,2-b]pyrazole-8-carboxamide]	1 to 100 nM	1 to 100 nM	–
CC1(c2cnn3c2[nH]c2cc(F)cc(C(N)=O)c23)CCN(CC2(C#N)CCC2)C1 (stereo not drawn) [Example 101, 3-(1-((1-cyanocyclobutyl)methyl)-3-methylpyrrolidin-3-yl)-6-fluoro-4H-benzo[4,5]imidazo[1,2-b]pyrazole-8-carboxamide]	1 to 100 nM	101 to 1000 nM	–
CC1(c2cnn3c2[nH]c2cc(F)cc(C(N)=O)c23)CCN(CC2(C#N)CC2)C1 (stereo not drawn) [Example 102, 3-(1-((1-cyanocyclopropyl)methyl)-3-methylpyrrolidin-3-yl)-6-fluoro-4H-benzo[4,5]imidazo[1,2-b]pyrazole-8-carboxamide]	1 to 100 nM	101 to 1000 nM	–
CC1(c2cnn3c2[nH]c2cc(F)cc(C(N)=O)c23)CCN(CCC#N)C1 (stereo not drawn) [Example 103, 3-(1-(2-cyanoethyl)-3-methylpyrrolidin-3-yl)-6-fluoro-4H-benzo[4,5]imidazo[1,2-b]pyrazole-8-carboxamide]	1 to 100 nM	101 to 1000 nM	–
CC1(c2cnn3c2[nH]c2cc(F)cc(C(N)=O)c23)CN(CC2CC2)C1 [Example 104, 3-(1-(cyclopropylmethyl)-3-methylazetidin-3-yl)-6-fluoro-4H-benzo[4,5]imidazo[1,2-b]pyrazole-8-carboxamide]	1 to 100 nM	1 to 100 nM	–
CC(C)N1CCC(C)(c2cnn3c2[nH]c2cc(F)cc(C(N)=O)c23)CC1 [Example 105, 6-fluoro-3-(1-isopropyl-4-methylpiperidin-4-yl)-4H-benzo[4,5]imidazo[1,2-b]pyrazole-8-carboxamide]	1 to 100 nM	1 to 100 nM	–
CC1(c2cnn3c2[nH]c2cc(F)cc(C(N)=O)c23)CCS(=O)(=O)CC1 [Example 106, 6-fluoro-3-(4-methyl-1,1-dioxidotetrahydro-2H-thiopyran-4-yl)-4H-benzo[4,5]imidazo[1,2-b]pyrazole-8-carboxamide]	1 to 100 nM	101 to 1000 nM	–
CCN1CCC(CC)(c2cnn3c2[nH]c2cc(F)cc(C(N)=O)c23)CC1 [Example 107, 3-(1,4-diethylpiperidin-4-yl)-6-fluoro-4H-benzo[4,5]imidazo[1,2-b]pyrazole-8-carboxamide]	1 to 100 nM	1 to 100 nM	–
N#CC1(c2cnn3c2[nH]c2cc(F)cc(C(N)=O)c23)CCN(CC2CC2)CC1 [Example 108, 3-(4-cyano-1-(cyclopropylmethyl)piperidin-4-yl)-6-fluoro-4H-benzo[4,5]imidazo[1,2-b]pyrazole-8-carboxamide]	1 to 100 nM	1 to 100 nM	–
NC(=O)c1cc(F)cc2[nH]c3c(C4(CO)CCN(CC5CC5)CC4)cnn3c12 [Example 109, 3-(1-(cyclopropylmethyl)-4-(hydroxymethyl)piperidin-4-yl)-6-fluoro-4H-benzo[4,5]imidazo[1,2-b]pyrazole-8-carboxamide]	1 to 100 nM	101 to 1000 nM	–
COC(=O)C1(c2cnn3c2[nH]c2cc(F)cc(C(N)=O)c23)CCN(CC2CC2)CC1 [Example 110, methyl 4-(8-carbamoyl-6-fluoro-4H-benzo[4,5]imidazo[1,2-b]pyrazol-3-yl)-1-(cyclopropylmethyl)piperidine-4-carboxylate]	1 to 100 nM	–	101 to 1000 nM
Cc1nn2c([nH]c3cc(F)cc(C(N)=O)c32)c1C1(C)CCN(CC2CC2)CC1 [Example 111, 3-(1-(cyclopropylmethyl)-4-methylpiperidin-4-yl)-6-fluoro-2-methyl-4H-benzo[4,5]imidazo[1,2-b]pyrazole-8-carboxamide]	1 to 100 nM	1 to 100 nM	–
CCN1CCC(C)(c2c(C)nn3c2[nH]c2cc(F)cc(C(N)=O)c23)CC1 [Example 112, 3-(1-ethyl-4-methylpiperidin-4-yl)-6-fluoro-2-methyl-4H-benzo[4,5]imidazo[1,2-b]pyrazole-8-carboxamide]	1 to 100 nM	1 to 100 nM	–
Cc1nn2c([nH]c3cc(F)cc(C(N)=O)c32)c1C1(C)CCN(CC(C)C)CC1 [Example 113, 6-fluoro-3-(1-isobutyl-4-methylpiperidin-4-yl)-2-methyl-4H-benzo[4,5]imidazo[1,2-b]pyrazole-8-carboxamide]	1 to 100 nM	1 to 100 nM	–
Cc1nn2c([nH]c3cc(F)cc(C(N)=O)c32)c1C1(C)CCN(C(C)C)CC1 [Example 114, 6-fluoro-3-(1-isopropyl-4-methylpiperidin-4-yl)-2-methyl-4H-benzo[4,5]imidazo[1,2-b]pyrazole-8-carboxamide]	1 to 100 nM	1 to 100 nM	–
Cc1nn2c([nH]c3cc(F)cc(C(N)=O)c32)c1C1(C)CCN(C)CC1 [Example 115, 3-(1,4-dimethylpiperidin-4-yl)-6-fluoro-2-methyl-4H-benzo[4,5]imidazo[1,2-b]pyrazole-8-carboxamide]	1 to 100 nM	1 to 100 nM	–
Cc1nn2c([nH]c3cc(F)cc(C(N)=O)c32)c1C1(C)CCN(CC(C)(C)O)CC1 [Example 116, 6-fluoro-3-(1-(2-hydroxy-2-methylpropyl)-4-methylpiperidin-4-yl)-2-methyl-4H-benzo[4,5]imidazo[1,2-b]pyrazole-8-carboxamide]	1 to 100 nM	1 to 100 nM	–
